One experiment has as its target T1, RORγ-LBD (Homo sapiens, UniProt P51449).
T1 construct: made in house; host or cells: SF9 cells (baculovirus)
T1 sequence (P51449 269-508 limits assumed): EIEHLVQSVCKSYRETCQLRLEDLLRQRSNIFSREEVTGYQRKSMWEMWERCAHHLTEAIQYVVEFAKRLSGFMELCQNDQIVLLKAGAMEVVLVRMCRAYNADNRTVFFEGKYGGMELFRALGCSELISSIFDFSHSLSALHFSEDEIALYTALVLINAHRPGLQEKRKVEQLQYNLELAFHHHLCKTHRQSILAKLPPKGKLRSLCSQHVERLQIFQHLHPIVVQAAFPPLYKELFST
The experiment can be described thus: RORγ-Ligand Binding Domain (LBD) TR-FRET Assay.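 For TR-FRET Assay Max Response: 665/615 nm ratio relative to signal without ursolic acid or compound set at 100.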 It is filed as biochemical. Summed up:
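SF9 lysate containing His-RORγ-LBD, ~3 nM final; coactivator peptide biotin-SRC1 LXXLL, 200 nM final; ursolic acid 2 μM final; DMSO 1% final; Tris pH 7.0 buffer with KCl, EDTA, DTT, BSA. TR-FRET format.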
In general terms: In TR-FRET formats the signal depends on donor and acceptor labels being close together.

The next experiment addresses T2, Gal4-RORγ-LBD (Homo sapiens, UniProt P51449).
T2 construct: expressed in transfected cells; host or cells: HEK-293 cells (pcDNA3.1neo plasmid)
T2 sequence (P51449 269-508 limits assumed): T1 sequence (P51449 269-508 limits assumed)
In words: Gal4-RORγ Luciferase Reporter Assay in HEK-293T Cells. To be noted: HEK-293 cells. It is filed as cell-based. The essentials: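 In transfected HEK-293 cells (Gal4-RORγ-LBD, Gal4-luciferase), test agents with 2 μM ursolic acid were incubated overnight at 37 °C before luminescent detection. Values are relative to the ursolic-acid-free, compound-free signal (100).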

Where [1] appears, read: luciferase reporter, with 2 μM ursolic acid.

Each structure is given as a SMILES string.

On to `CN(C)c1cccc(-c2ccc3c(c2)N(S(=O)(=O)c2cccc(C(F)(F)F)c2)C[C@H](CC(C)(C)C(=O)O)O3)n1` [Compound 32D, (S)-3-(6-(6-(dimethylamino)-pyridin-2-yl)-4-((3-(trifluoromethyl)phenyl)sulfonyl)-3,4-dihydro-2H-benzo[b][1,4]oxazin-2-yl)-2,2-dimethylpropanoic acid], for which, at RORγ-LBD, the EC50 is less than 0.5 µM and the “TR-FRET Assay Max Response” value is reported as “**** (The symbol “****” indicates a value greater than 200)”. In addition, on Gal4-RORγ-LBD (setting [1]), the 50% effective concentration (EC50) is less than 0.5 µM and the “Gal4-RORγ Assay Max Response” value was “** (The symbol “**” indicates a value in the range of greater than 90 to 150)”.
In the case of `COc1cccc(C#N)c1-c1ccc2c(c1)N(S(=O)(=O)c1cccc(C(F)(F)F)c1)C[C@H](CCC(=O)O)O2` [Compound 2BJ, (S)-3-(6-(2-cyano-6-methoxy-phenyl)-4-((3-(trifluoromethyl)-phenyl)sulfonyl)-3,4-dihydro-2H-benzo[b][1,4]oxazin-2-yl)propanoic acid], the EC50 on RORγ-LBD and at Gal4-RORγ-LBD (setting [1]) was more than 10 µM each time. At Gal4-RORγ-LBD (setting [1]), the “Gal4-RORγ Assay Max Response” value was “** (The symbol “**” indicates a value in the range of greater than 90 to 150)”.
`Cc1ccc(C)c(-c2ccc3c(c2)N(S(=O)(=O)c2cccc(C(F)(F)F)c2)C[C@H](CC(C)(C)C(=O)O)O3)c1` [Compound 32AT, (S)-3-(6-(2,5-dimethylphenyl)-4-((3-(trifluoromethyl)phenyl)-sulfonyl)-3,4-dihydro-2H-benzo[b][1,4]oxazin-2-yl)-2,2-dimethylpropanoic acid]: at RORγ-LBD, the EC50 is less than 0.5 µM and the “TR-FRET Assay Max Response” value was “** (The symbol “**” indicates a value in the range of greater than 90 to 150)”. Besides, on Gal4-RORγ-LBD (2 μM ursolic acid), the EC50 is less than 0.5 µM and the “Gal4-RORγ Assay Max Response” value was “** (The symbol “**” indicates a value in the range of greater than 90 to 150)”.
As for `CC(=O)N1CC(C[C@H]2CN(S(=O)(=O)c3cccc(C(F)(F)F)c3)c3cc(-c4cc(F)ccc4F)ccc3O2)C1` [Compound 62, (S)-1-(3-((6-(2,5-difluorophenyl)-4-((3-(trifluoromethyl)phenyl)sulfonyl)-3,4-dihydro-2H-benzo[b][1,4]oxazin-2-yl)methyl)azetidin-1-yl)ethan-1-one], at RORγ-LBD, the EC50 was less than 0.5 µM and the “TR-FRET Assay Max Response” value is recorded as “** (The symbol “**” indicates a value in the range of greater than 90 to 150)”. Moreover, on Gal4-RORγ-LBD (2 μM ursolic acid), the EC50 was less than 0.5 µM and the “Gal4-RORγ Assay Max Response” value is reported as “** (The symbol “**” indicates a value in the range of greater than 90 to 150)”.
Regarding `O=C(NC[C@H]1CN(S(=O)(=O)c2cccc(C(F)(F)F)c2)c2cc(-c3cc(F)ccc3F)ccc2O1)C1CCC1` [Compound 30BB, (S)-N-((6-(2,5-difluorophenyl)-4-((3-(trifluoromethyl)phenyl)-sulfonyl)-3,4-dihydro-2H-benzo-[b][1,4]oxazin-2-yl)methyl)-cyclobutanecarboxamide], at RORγ-LBD, the EC50 is less than 0.5 µM and the “TR-FRET Assay Max Response” value was “*** (The symbol “***” indicates a value in the range of greater than 150 to 200)”. On Gal4-RORγ-LBD (setting [1]), the EC50 is less than 0.5 µM and the “Gal4-RORγ Assay Max Response” value is given as “* (The symbol “*” indicates a value in the range of 25 to 90)”.
Regarding `CC(F)C(=O)NC[C@H]1CN(S(=O)(=O)c2cccc(C(F)(F)F)c2)c2cc(-c3cccc(F)c3Cl)ccc2O1` (stereo partly drawn) [Compound 30CK, N-(((S)-6-(2-chloro-3-fluoro-phenyl)-4-((3-(trifluoromethyl)-phenyl)sulfonyl)-3,4-dihydro-2H-benzo[b][1,4]oxazin-2-yl)methyl)-2-fluoropropanamide], at RORγ-LBD, the EC50 is less than 0.5 µM and the “TR-FRET Assay Max Response” value is given as “** (The symbol “**” indicates a value in the range of greater than 90 to 150)”. In addition, at Gal4-RORγ-LBD (2 μM ursolic acid), the EC50 is 0.5 to 5 µM and the “Gal4-RORγ Assay Max Response” value is listed as “* (The symbol “*” indicates a value in the range of 25 to 90)”.
In the same order, the values of `O=C(O)CC[C@H]1CN(S(=O)(=O)c2cccc(C(F)(F)F)c2)c2cc(-c3cc(F)cc(F)c3)cc(F)c2O1` [Compound 22K, (S)-3-(6-(3,5-difluorophenyl)-8-fluoro-4-((3-(trifluoromethyl)-phenyl)sulfonyl)-3,4-dihydro-2H-benzo[b][1,4]oxazin-2-yl)propanoic acid] are less than 0.5 µM, “*** (The symbol “***” indicates a value in the range of greater than 150 to 200)”, less than 0.5 µM and “** (The symbol “**” indicates a value in the range of greater than 90 to 150)”.
Regarding `Cc1noc(C)c1-c1ccc2c(c1)N(S(=O)(=O)c1cccc(C(F)(F)F)c1)C[C@H](CCC(=O)O)O2` [Compound 2BO, (S)-3-(6-(3,5-dimethylisoxazol-4-yl)-4-((3-(trifluoromethyl)-phenyl)sulfonyl)-3,4-dihydro-2H-benzo[b][1,4]oxazin-2-yl)propanoic acid], the EC50 at RORγ-LBD and on Gal4-RORγ-LBD (setting [1]) was more than 10 µM in each case.
`COc1cccc(-c2ccc3c(c2)N(S(=O)(=O)c2cccc(C(F)(F)F)c2)C[C@H](CC(C)(C)C(=O)O)O3)c1OC` [Compound 32V, (S)-3-(6-(2,3-dimethoxyphenyl)-4-((3-(trifluoromethyl)phenyl)-sulfonyl)-3,4-dihydro-2H-benzo[b][1,4]oxazin-2-yl)-2,2-dimethylpropanoic acid]: at RORγ-LBD, the EC50 was less than 0.5 µM and the “TR-FRET Assay Max Response” value is “*** (The symbol “***” indicates a value in the range of greater than 150 to 200)”. Also, on Gal4-RORγ-LBD (2 μM ursolic acid), the EC50 was less than 0.5 µM and the “Gal4-RORγ Assay Max Response” value was “** (The symbol “**” indicates a value in the range of greater than 90 to 150)”.
Regarding `O=C(O)C1(C[C@H]2CN(S(=O)(=O)c3cccc(C(F)(F)F)c3)c3cc(-c4cc(F)ccc4F)ccc3O2)CCC1` [Compound 32BE, (S)-1-((6-(2,5-difluorophenyl)-4-((3-(trifluoromethyl)phenyl)-sulfonyl)-3,4-dihydro-2H-benzo[b][1,4]oxazin-2-yl)methyl)cyclobutane-1-carboxylic acid], on RORγ-LBD, the EC50 was less than 0.5 µM and the “TR-FRET Assay Max Response” value is reported as “** (The symbol “**” indicates a value in the range of greater than 90 to 150)”. Besides, on Gal4-RORγ-LBD (2 μM ursolic acid), the EC50 was less than 0.5 µM and the “Gal4-RORγ Assay Max Response” value is on record as “** (The symbol “**” indicates a value in the range of greater than 90 to 150)”.
For the compound `CN(CCC(=O)O)C(=O)NCC[C@H]1CN(S(=O)(=O)c2cccc(C(F)(F)F)c2)c2cc(-c3cc(F)ccc3F)ccc2O1` [Compound 23Y, (S)-3-(3-(2-(6-(2,5-difluoro-phenyl)-4-((3-(trifluoromethyl)-phenyl)sulfonyl)-3,4-dihydro-2H-benzo[b][1,4]oxazin-2-yl)ethyl)-1-methylureido)propanoic acid], at RORγ-LBD, the concentration giving a half-maximal response (EC50) was less than 0.5 µM and the “TR-FRET Assay Max Response” value was “*** (The symbol “***” indicates a value in the range of greater than 150 to 200)”. Moreover, at Gal4-RORγ-LBD (setting [1]), the EC50 is less than 0.5 µM and the “Gal4-RORγ Assay Max Response” value was “** (The symbol “**” indicates a value in the range of greater than 90 to 150)”.
As to `COc1cc(S(=O)(=O)N2C[C@H](CCNC(=O)C(C)(C)O)Oc3ccc(-c4cc(F)ccc4F)cc32)ccc1F` [Compound 30M, (S)-N-(2-(6-(2,5-difluorophenyl)-4-((4-fluoro-3-methoxyphenyl)-sulfonyl)-3,4-dihydro-2H-benzo[b][1,4]oxazin-2-yl)ethyl)-2-hydroxy-2-methylpropanamide], on RORγ-LBD, the EC50 is less than 0.5 µM and the “TR-FRET Assay Max Response” value is given as “*** (The symbol “***” indicates a value in the range of greater than 150 to 200)”. On Gal4-RORγ-LBD (setting [1]), the EC50 is less than 0.5 µM and the “Gal4-RORγ Assay Max Response” value is “* (The symbol “*” indicates a value in the range of 25 to 90)”.
With `O=C(NC[C@H]1CN(S(=O)(=O)c2cccc(C(F)(F)F)c2)c2cc(-c3cccc(F)c3Cl)ccc2O1)C(=O)C1CC1` [Compound 30CA, (S)-N-((6-(2-chloro-3-fluoro-phenyl)-4-((3-(trifluoromethyl)-phenyl)sulfonyl)-3,4-dihydro-2H-benzo[b][1,4]oxazin-2-yl)methyl)-2-cyclopropyl-2-oxoacetamide], on RORγ-LBD, the EC50 is less than 0.5 µM and the “TR-FRET Assay Max Response” value is “*** (The symbol “***” indicates a value in the range of greater than 150 to 200)”. Moreover, on Gal4-RORγ-LBD (2 μM ursolic acid), the EC50 is less than 0.5 µM and the “Gal4-RORγ Assay Max Response” value is “* (The symbol “*” indicates a value in the range of 25 to 90)”.
In the case of `O=C(O)[C@H]1C[C@@H]1[C@H]1CN(S(=O)(=O)c2cccc(C(F)(F)F)c2)c2cc(-c3cc(F)cc(OC(F)F)c3)ccc2O1` [Compound 56, (1S,2S)-2-((S)-6-(3-(difluoromethoxy)-5-fluorophenyl)-4-((3-(trifluoromethyl)phenyl)sulfonyl)-3,4-dihydro-2H-benzo[b][1,4]oxazin-2-yl)cyclopropane-1-carboxylic acid], at RORγ-LBD, the EC50 was less than 0.5 µM and the “TR-FRET Assay Max Response” value is recorded as “** (The symbol “**” indicates a value in the range of greater than 90 to 150)”. On Gal4-RORγ-LBD (2 μM ursolic acid), the EC50 lay within 0.5 to 5 µM and the “Gal4-RORγ Assay Max Response” value was “** (The symbol “**” indicates a value in the range of greater than 90 to 150)”.

For orientation: EC50 means the midpoint of the concentration-response curve. A higher EC50 goes with a less potent agent.
